{
  "source": "patent US9629866B2",
  "about": "“Use of cordycepin in manufacture of medicaments for anti-depression” (BEIJING GRAGEN BIOTECHNOLOGY CO. LTD., priority 2012, dated 2017)",
  "assay_type_in_all_cases": "in vivo",
  "key": {"CD1 male mice [1]": {"tested_on": "CD1 male mice", "assay": "Mice forced swimming test", "conditions": "for forced swimming immobility time within 4 minutes: blank control 111.96±14.58 s, mean±SE, P<0.05", "text": "“Immobility” herein refers to that “animals stop struggling in the water, or stay in a floating state, only showing nostrils for breathing with only small body movement to keep the head floating on the water”. Before the test, the drugs to be screened are given. The animals in the condition of forced swimming cannot escape from the harsh environment, leading to despairing animal behaviors. […] Laboratory Animal: CD1 mice, male, provided by Beijing Vital River Laboratories (VRL) (License No.: SCXK (Beijing), 2011-0011). Animals were kept in separate cages a week before test, with a light and shade cycle of 12 h/12 h, at room temperature 20° C.˜22° C., and with free access to water and food. Feed is provided by Laboratory Animal Center, Institute of Genetics and Developmental Biology, Chinese Academy of Sciences. CD1 mice, 7 weeks old, 25 g-35 g, were used for test after acclimating for 1 week. Mice were divided into 5 groups randomly, 8 mice for each. They were treated in the same way as Example 1: Drugs were delivered at 10 a.m. by intraperitoneal injection, once a day for 3 days, then forced swimming test started. Forced swimming test: All CD1 mice in each group were separately and vertically put into the organic glass cylinder (40 cm×14 cm in diameter) with 15 cm-depth and 23° C. water. After recoding a video of each dose group and control group for 6 minutes, the accumulative immobility time within the following 4 minutes was compared between each group. […] The laboratory results were all expressed by “mean value±SE”; two sample means were compared by t test."}, "CD1 male mice [2]": {"tested_on": "CD1 male mice", "assay": "Mice tail suspension test (animal depression model)", "procedure": "In the mice tail suspension test, mice present the special quiet immobility state without any struggle in the tail suspension state, and antidepressant drugs can obviously shorten the duration of the immobility state. When tested, mice tails are fixed with clips, hanging upside-down. […] The time of immobility is recorded. The immobility indicator is “animal has no body movement in addition to breathing”. […] Laboratory Animal: CD1 mice, male, 25 g˜35 g, provided by Beijing Vital River Laboratories (VRL) (License No.: SCXK (Beijing), 2011-0011). Animals were kept in separate cages with free access to water; feed is provided by Laboratory Animal Center, Institute of Genetics and Developmental Biology, Chinese Academy of Sciences; laboratory mice ate ordinary feed. […] Drugs were delivered at 10 a.m. by intraperitoneal injection, 90 minutes after which tail suspension test statistics started. In mice tail suspension test, mice tails were stuck to a horizontal rail with tape 2 cm away from the tail tip, making animals upside down, whose heads were about 15 cm from the desktop. After observing for 6 minutes, the accumulative immobility time within the following 4 minutes was recorded. The immobility indicator was “animal has no body movement in addition to breathing”. Statistical Method: The laboratory results were all expressed by “mean value±SE”; two sample means were compared by t test."}, "CD1 male mice [3]": {"tested_on": "CD1 male mice", "assay": "Mice open field test to verify central excitability", "conditions": "measuring time 1 h/mouse, control 424.15+82.78 s, Anova p>0.05, N=12", "text": "Laboratory materials and methods are the same as Example 1 and Example 2.\nConsidering that the reduced immobility time of animals in classic animal depression models may be due to the central excitability effect of drugs, we conducted a mice open field test to verify the central excitability of cordycepin. Mice were processed 1 d before the open field behavior test. They were kept in the open box with 80 cm in both length and width, 40 cm in height, black wall, 16 equal sections in area, and indoor sound insulation. After the test started, mice were put in the middle of the box, and the time of mice staying in the central 4 sections was taken as a parameter. The measuring time was 1 h/mouse every time. […] Besides, there is no rising trend, so for cordycepin, the possibility of causing the manic state can be ruled out."}, "[4]": {"conditions": "high-dose 12.5 mg/kg i.p. once a day for 3 days"}, "[5]": {"conditions": "low-dose 5 mg/kg i.p. once a day for 3 days"}},
  "data": [
    {"smiles": "Nc1ncnc2c1ncn2[C@@H]1O[C@H](CO)C[C@H]1O", "note": "[cordycepin, 3′-deoxyadenosine]", "values": [
      {"measurement": "antidepressant effect compared with imipramine (15 mg/kg)", "setting": "CD1 male mice [1]; [4]", "value": "stronger antidepressant effects"},
      {"measurement": "decrease of forced swimming immobility time vs blank control", "setting": "CD1 male mice [1]; [4]", "value": 68.8, "unit": "%"},
      {"measurement": "forced swimming immobility time within 4 minutes", "setting": "CD1 male mice [1]; [4]", "value": "34.94 ± 12.16", "unit": "s"},
      {"measurement": "decrease of forced swimming immobility time vs blank control", "setting": "CD1 male mice [1]; [5]", "value": 37.6, "unit": "%"},
      {"measurement": "forced swimming immobility time within 4 minutes", "setting": "CD1 male mice [1]; [5]", "value": "69.88 ± 10.25", "unit": "s"},
      {"measurement": "time needed for antidepressant effect to be very obvious", "setting": "CD1 male mice [2]; high-dose 12.5 mg/kg i.p.", "value": 1.5, "unit": "h"},
      {"measurement": "decrease of tail suspension immobility time vs blank control", "setting": "CD1 male mice [2]; high-dose 12.5 mg/kg i.p., 90 min after injection", "value": 60.8, "unit": "%"},
      {"measurement": "tail suspension immobility time", "setting": "CD1 male mice [2]; high-dose 12.5 mg/kg i.p., 90 min after injection, blank control 86.43±20.37 s, mean±SE, P<0.05", "value": "33.86 ± 7.46", "unit": "s"},
      {"measurement": "tail suspension immobility time vs control", "setting": "CD1 male mice [2]; low-dose 5 mg/kg i.p., 90 min after injection", "value": "has not been significantly reduced"},
      {"measurement": "time staying in the central 4 sections", "setting": "CD1 male mice [3]; high-dose group", "value": "379.88+95.28 s"},
      {"measurement": "time staying in the central 4 sections", "setting": "CD1 male mice [3]; low-dose group", "value": "399.75+72.25 s"}
    ]}
  ]
}
